Laboratory results: ChEMBL document CHEMBL4622965, “Structural Basis of Inhibition of Insulin-Regulated Aminopeptidase by a Macrocyclic Peptidic Inhibitor” (ACS Med Chem Lett, 2020)
Activity calls are given as the source filed them. The calls are words filed in the database; no cut-off is given here.

How the values were obtained:
[1] = target: Endoplasmic reticulum aminopeptidase 1 (Homo sapiens, UniProt Q9NZ08); assay: Inhibition of ERAP1 (unknown origin) using Leu-AMC as substrate by fluorescence based assay
Sequence of Endoplasmic reticulum aminopeptidase 1 (Q9NZ08 whole entry): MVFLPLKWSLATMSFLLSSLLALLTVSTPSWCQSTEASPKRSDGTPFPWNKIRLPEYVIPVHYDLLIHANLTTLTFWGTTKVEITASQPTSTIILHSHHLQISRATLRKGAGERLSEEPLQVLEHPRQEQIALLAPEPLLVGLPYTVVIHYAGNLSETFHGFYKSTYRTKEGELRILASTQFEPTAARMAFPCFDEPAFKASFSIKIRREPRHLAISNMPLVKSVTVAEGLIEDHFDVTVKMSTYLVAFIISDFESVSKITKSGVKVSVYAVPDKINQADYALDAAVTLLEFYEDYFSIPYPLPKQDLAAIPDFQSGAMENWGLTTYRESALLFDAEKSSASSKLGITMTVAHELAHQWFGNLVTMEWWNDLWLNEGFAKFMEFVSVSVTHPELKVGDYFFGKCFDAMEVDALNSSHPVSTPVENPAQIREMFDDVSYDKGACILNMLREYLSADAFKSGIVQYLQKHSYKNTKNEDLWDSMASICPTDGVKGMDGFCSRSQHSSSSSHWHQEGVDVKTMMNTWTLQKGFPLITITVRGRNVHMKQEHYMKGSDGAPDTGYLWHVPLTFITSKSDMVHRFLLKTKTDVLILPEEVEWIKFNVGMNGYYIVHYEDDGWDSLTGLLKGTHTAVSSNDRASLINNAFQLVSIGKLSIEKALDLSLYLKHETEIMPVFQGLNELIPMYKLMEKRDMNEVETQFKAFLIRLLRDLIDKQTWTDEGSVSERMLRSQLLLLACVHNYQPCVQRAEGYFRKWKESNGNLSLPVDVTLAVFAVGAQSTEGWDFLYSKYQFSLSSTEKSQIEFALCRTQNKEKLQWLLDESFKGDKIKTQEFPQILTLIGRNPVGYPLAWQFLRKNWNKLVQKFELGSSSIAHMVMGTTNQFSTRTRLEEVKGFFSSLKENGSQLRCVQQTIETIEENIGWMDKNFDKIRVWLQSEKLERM

[2] = target: Endoplasmic reticulum aminopeptidase 2 (Homo sapiens, UniProt Q6P179); assay: Inhibition of ERAP2 (unknown origin) using Arg-AMC as substrate by fluorescence based assay
Sequence of Endoplasmic reticulum aminopeptidase 2 (Q6P179 whole entry): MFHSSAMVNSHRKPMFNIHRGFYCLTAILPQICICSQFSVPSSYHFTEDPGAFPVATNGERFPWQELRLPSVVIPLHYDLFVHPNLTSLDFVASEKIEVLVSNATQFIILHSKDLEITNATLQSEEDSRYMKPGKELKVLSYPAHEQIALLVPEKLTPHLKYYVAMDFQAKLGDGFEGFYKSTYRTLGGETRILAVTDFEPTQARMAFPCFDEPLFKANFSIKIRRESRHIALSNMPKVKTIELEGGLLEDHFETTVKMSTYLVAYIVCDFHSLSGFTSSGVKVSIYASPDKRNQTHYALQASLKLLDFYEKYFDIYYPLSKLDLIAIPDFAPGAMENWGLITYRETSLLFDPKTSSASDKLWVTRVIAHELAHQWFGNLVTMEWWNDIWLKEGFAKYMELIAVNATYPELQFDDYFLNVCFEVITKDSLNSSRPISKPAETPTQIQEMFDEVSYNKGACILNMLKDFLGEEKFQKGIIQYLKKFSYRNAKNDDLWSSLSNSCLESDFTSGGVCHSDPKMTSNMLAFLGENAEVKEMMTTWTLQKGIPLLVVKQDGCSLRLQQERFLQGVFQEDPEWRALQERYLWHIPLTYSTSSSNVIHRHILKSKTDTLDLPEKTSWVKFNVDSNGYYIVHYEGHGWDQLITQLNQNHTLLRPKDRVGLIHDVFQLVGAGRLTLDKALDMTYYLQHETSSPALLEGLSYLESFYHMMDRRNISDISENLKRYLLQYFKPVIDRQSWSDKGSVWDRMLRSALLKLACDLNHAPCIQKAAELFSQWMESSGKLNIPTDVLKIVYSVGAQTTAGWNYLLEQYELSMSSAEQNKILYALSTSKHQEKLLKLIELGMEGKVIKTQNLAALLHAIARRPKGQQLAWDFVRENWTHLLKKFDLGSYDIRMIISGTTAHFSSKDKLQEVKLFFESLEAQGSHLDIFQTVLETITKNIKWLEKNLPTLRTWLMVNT

pIC50 [1]	IC50 [2] [µM]	IC50 [1] [µM]	Structure (SMILES)
inactive	1.26	–	N[C@H]1CCSSC[C@@H](C(=O)NCc2ccccc2CC(=O)O)NC(=O)C[C@H](Cc2ccc(O)cc2)NC1=O
–	7.94	79.4	CC[C@H](C)[C@H](NC(=O)[C@H](Cc1ccc(O)cc1)NC(=O)[C@@H](N)C(C)C)C(=O)N[C@@H](Cc1cnc[nH]1)C(=O)N1CCC[C@H]1C(=O)N[C@@H](Cc1ccccc1)C(=O)O [ANGIOTENSIN IV]
